From PubChem BioAssay (NCI)
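48-hour exposure; five concentrations; linearly interpolated endpoints. TGI: total growth inhibition.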

Columns and labels:
Assay in all cases: NCI tumour cell line growth inhibition, 48 h
CAKI-1 renal = test system: CAKI-1 renal
COLO 205 colon = test system: COLO 205 colon
DU-145 prostate = test system: DU-145 prostate
EKVX NSCLC = test system: EKVX NSCLC
HCC-2998 colon = test system: HCC-2998 colon
MDA-MB-435 = test system: MDA-MB-435
MDA-N = test system: MDA-N
MOLT-4 leukemia = test system: MOLT-4 leukemia
OVCAR-4 ovarian = test system: OVCAR-4 ovarian
RPMI-8226 leukemia = test system: RPMI-8226 leukemia
RXF 393 renal = test system: RXF 393 renal
SF-539 CNS = test system: SF-539 CNS
SK-MEL-2 melanoma = test system: SK-MEL-2 melanoma
SK-MEL-28 melanoma = test system: SK-MEL-28 melanoma
SNB-19 CNS = test system: SNB-19 CNS
TK-10 renal = test system: TK-10 renal
UACC-62 melanoma = test system: UACC-62 melanoma
NCI-H460 lung = test system: NCI-H460 lung
SNB-75 CNS = test system: SNB-75 CNS
A498 renal = test system: A498 renal

| Structure (SMILES) | TGI (CAKI-1 renal) | TGI (COLO 205 colon) | TGI (DU-145 prostate) | TGI (EKVX NSCLC) | TGI (HCC-2998 colon) | TGI (MDA-MB-435) | TGI (MDA-N) | TGI (MOLT-4 leukemia) | TGI (OVCAR-4 ovarian) | TGI (RPMI-8226 leukemia) | TGI (RXF 393 renal) | TGI (SF-539 CNS) | TGI (SK-MEL-2 melanoma) | TGI (SK-MEL-28 melanoma) | TGI (SNB-19 CNS) | TGI (TK-10 renal) | TGI (UACC-62 melanoma) | TGI (NCI-H460 lung) | TGI (SNB-75 CNS) | TGI (A498 renal) |
| --- | --- | --- | --- | --- | --- | --- | --- | --- | --- | --- | --- | --- | --- | --- | --- | --- | --- | --- | --- | --- |
| O=C1NC(N2CCCCC2)=N/C1=C\c1ccc(Cl)cc1 | > 100 µM | > 100 µM | > 100 µM | > 100 µM | 60.5 µM | > 100 µM | > 100 µM | > 100 µM | > 100 µM | > 100 µM | > 100 µM | > 100 µM | > 100 µM | > 100 µM | > 100 µM | > 100 µM | > 100 µM | – | – | – |
| CC(C)(C)OC(=O)NCCNCCNc1ccccc1 | > 100 µM | > 100 µM | > 100 µM | > 100 µM | > 100 µM | > 100 µM | > 100 µM | > 100 µM | > 100 µM | > 100 µM | > 100 µM | > 100 µM | > 100 µM | > 100 µM | > 100 µM | > 100 µM | > 100 µM | > 100 µM | > 100 µM | – |
| Cn1c2ccccc2c(=O)c2cccc(C(=O)NCC(=O)O)c21 | – | > 100 µM | > 100 µM | > 100 µM | > 100 µM | > 100 µM | > 100 µM | > 100 µM | > 100 µM | > 100 µM | – | > 100 µM | > 100 µM | > 100 µM | > 100 µM | > 100 µM | > 100 µM | > 100 µM | > 100 µM | – |
| CSC1=NNC(SC)=NN1 | 0.311 µM | 0.413 µM | 0.345 µM | 0.327 µM | > 1 µM | 0.321 µM | 0.319 µM | 0.114 µM | 0.309 µM | > 1 µM | – | 0.413 µM | 0.281 µM | 0.326 µM | 0.336 µM | 0.357 µM | 0.29 µM | 0.385 µM | – | > 1 µM |
| Oc1c(Br)cc(/C=C/c2cccc(/C=C/c3cc(Br)c(O)c(Br)c3)n2)cc1Br | 45.6 µM | 32.1 µM | 14.1 µM | 34 µM | 18.8 µM | 46.5 µM | 39.6 µM | 14.7 µM | 35.7 µM | 27.5 µM | – | 26.6 µM | 20.1 µM | 58.6 µM | 29.4 µM | 56.3 µM | 41.8 µM | 11.3 µM | 31.6 µM | 25 µM |
